Values after ≈ are worked out from the molar mass of the structure shown.
settings: buffer; pH 7.4; 200.0 µM

Structure (SMILES) | solubility kinetic [µg/mL]
CCNC(=O)CCc1nc(-c2ccc(C)cc2)no1 | > 38.9
Cc1cccc(NC(=O)c2cccc(C(=O)Nc3cccc(C)c3C)n2)c1C | 1.1 (≈ 2.95 µM)
Cc1cccc(C)c1OCCN1CCOCC1.O=C(O)C(=O)O | 42.1
CC1=Nc2ccc(C)cc2/C1=C/c1c(N)n2oc(C)cc2nc1=O | 0.6 (≈ 1.87 µM)
CC(=O)Nc1ccc(NCc2cccs2)cc1 | > 36.9
COc1cc(/C=C/C(=O)OCC(=O)NC2CC2)cc(OC)c1OC | > 50.3
N#Cc1cccc(C(=O)Nc2ccc(S(=O)(=O)Nc3nccs3)cc2)c1 | > 57.7
CCOC(=O)CN1C(=N)N(c2nc(NC(C)C)nc(OC)n2)CC1=O | > 52.7
CCOC(=O)c1cc(C)nc(S(C)(=O)=O)c1C#N | 28.3 (≈ 105 µM)
Cc1cc(C(=O)CN2C(=O)C(=O)N(Cc3ccccc3)C2=O)c(C)n1Cc1ccccc1 | 4 (≈ 9.31 µM)
CN(CCO)CC(O)Cn1cnc2c1c(=O)n(C)c(=O)n2C.O=C(O)c1cccnc1 (stereo not given) | > 65.2
O=C(Nc1cc([N+](=O)[O-])ccc1Cl)c1cccnc1 | 26.4 (≈ 95.1 µM)
OCC(O)CNC(=S)NC1CCCCC1 (stereo not given) | > 34.9
C/C(=N\NC(=O)c1ccncc1)c1cccs1 | > 36.8
COC(=O)[C@H](C)NC(=O)Nc1cccc(Br)c1 | > 45.2
NS(=O)(=O)c1cccc(NC(=O)CC2(CC(=O)O)CCCC2)c1 | 41.7 (≈ 123 µM)
CCCNC(=O)CSc1nccn1Cc1ccc(OC)cc1 | > 47.9
CCNS(=O)(=O)c1ccc(NC(=O)Nc2cc(C)ccc2OC)cc1 | 0.9 (≈ 2.48 µM)
CCCOc1ccc(/C=C2/C(=O)ON=C2C)cc1OCC | 36.8 (≈ 127 µM)
O=C(CCNS(=O)(=O)c1ccccc1)Nc1ccccc1 | > 45.7
Cc1sc(N)nc1-c1ccc(Oc2ccccc2)cc1 | 2.1 (≈ 7.44 µM)
N#Cc1ccc(OC(=O)c2cnccn2)cc1 | 31.7 (≈ 141 µM)
COc1ccc(-c2cn3cccnc3n2)cc1 | > 33.8
COC(=O)c1cc(Br)c(N)cc1OC | > 39
COc1ccc(C2C(C(C)=O)=C(O)C(=O)N2c2ccc(C)cc2)cc1 (stereo not given) | > 50.6
O=C(NCCc1ccc(F)cc1)c1coc(=O)c(Br)c1 | 2.9 (≈ 8.53 µM)
Cc1sc2ncnc(SCC(=O)N3CCCCC3)c2c1C | 5.5 (≈ 17.1 µM)
CNC(=O)Nc1ccc2nc(C)oc2c1 | > 30.8

Results, then the molecule that gave them:

solubility kinetic [µg/mL] | Structure (SMILES)
> 36.9 | S=C(c1c[nH]c2ccccc12)N1CCOCC1
13.6 (≈ 40.3 µM) | Cc1c(OCC(=O)N(C)C)ccc2c(-c3ccccc3)cc(=O)oc12
> 50.1 | Br.O=C(O)c1ccccc1CSC1=NCCS1
> 45.2 | O=C(NCC(=O)N1CCCC1)c1ccc(Br)o1
47.6 (≈ 146 µM) | CCOC(=O)C1CCCN(C(=O)COC(=O)c2cccs2)C1 (stereo not given)
> 46.3 | CN1CCN(C(=O)c2ccc(C(F)(F)F)cc2)CC1.Cl
42.9 (≈ 149 µM) | O=C(O)c1ccc(S(=O)(=O)N2CCSCC2)cc1
> 50.9 | COc1ccccc1N1CCN(/N=C/c2ccccc2C(=O)O)CC1
17.2 (≈ 54.2 µM) | CSc1ccccc1C(=O)NCCSc1ccc(C)cc1
1.1 (≈ 3.67 µM) | N#Cc1nc(-c2ccco2)oc1NCc1ccccc1Cl
> 48.3 | O=C(C1CCCCC1)N1CCC(O)(c2ccc(Cl)cc2)CC1
37.4 (≈ 144 µM) | O=C(CCOc1ccccc1)Nc1ccccc1F
16.3 (≈ 58.6 µM) | C=C(C)n1c(=O)n(Cc2ccc(C)cc2)c2ccccc21
13 (≈ 38.8 µM) | Cc1cc(C)c(OCC(=O)N2CC=C(c3ccccc3)CC2)c(C)c1
> 45.7 | Cc1ccc(N2C(=O)CC(N3CCSCC3)C2=O)c(C)c1 (stereo not given)
> 56.6 | CCCn1nc(C(=O)N2CCN(c3ccccn3)CC2)c2ccccc2c1=O

solubility kinetic [µg/mL] | Structure (SMILES)
5.4 (≈ 14.6 µM) | COc1ccccc1CNC(=O)COC(=O)/C=C/c1ccc2c(c1)OCO2
> 42.4 | CC1(C)CC(=O)C=C(NCCc2c[nH]c3ccccc23)C1
> 49.3 | CCCc1cnc(N2CCN(C(=O)c3ccc(F)cc3)CC2)nc1
30.2 (≈ 97.3 µM) | COC(=O)C1=C(C)N(C)C(=O)NC1c1cccc2ccccc12 (stereo not given)
> 49 | COC(=O)c1c(NC(C)=O)sc(C(=O)N2CCOCC2)c1C
19.6 (≈ 70.9 µM) | N#Cc1ccccc1CCN1C(=O)c2ccccc2C1=O
15.3 (≈ 45.1 µM) | COc1cccc(C(=O)NCC2(c3ccccc3)CCCC2)c1OC
6.8 (≈ 31.9 µM) | c1ccc2c(c1)CSc1ccccc1N2
22.1 (≈ 104 µM) | Cc1cccc(NC(=O)c2cnccn2)c1
> 47 | CCN(C(=O)COc1ncnc2ccccc12)C1CCCCC1
> 60 | O=C(O)CC1(CC(=O)Nc2ccc(Cl)cc2C(=O)c2ccccc2)CCCC1
2.5 (≈ 7.38 µM) | O=C(NCCSCc1c(F)cccc1Cl)Nc1ccccc1
15 (≈ 47.6 µM) | Fc1cccc(COc2ccccc2C(=S)N2CCCC2)c1
> 45.4 | CC(=O)NC(CC(=O)N(C)C1CCCCC1)c1ccccc1 (stereo not given)
27.3 (≈ 109 µM) | Cc1cc(C)c(C)c(OCCN2CCOCC2)c1
> 38.1 | Cl.OCCN1C2=NCCCN2c2ccccc21

Source: PubChem BioAssay AID1996
